Where a SMILES comes first, the peptide text is derived from it.
Tests used:
[1] = Simulated Intestinal Fluid (SIF) Stability Assay; format: in vitro ADME; conditions: pig, simulated intestinal fluid (SIF) with 1% porcine pancreatin, pH 6.5, porcine pancreatin, 37° C.; dimers, Table 7
Outline: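 Percent peptide remaining over time was measured by LC-MS/MS as the peak-area ratio to internal standard, and a first-order decay fit gave half-life. Digests contained 22 μM peptide and 1% pancreatin in pH 6.5 FaSSIF buffer at 37° C. Aliquots were quenched in organic solvent with formic acid.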

α4β1 = target: T1, α4β1 (Homo sapiens, UniProt P05556+P13612); assay: α4β1-VCAM Competition ELISA; format: binding; conditions: thioether peptide dimers, Table 7; read-out: ELISA A4B1
T1 construct: purchased R&D Systems 5668-A4
T1 sequence (P05556 21-728 limits assumed, one chain of several): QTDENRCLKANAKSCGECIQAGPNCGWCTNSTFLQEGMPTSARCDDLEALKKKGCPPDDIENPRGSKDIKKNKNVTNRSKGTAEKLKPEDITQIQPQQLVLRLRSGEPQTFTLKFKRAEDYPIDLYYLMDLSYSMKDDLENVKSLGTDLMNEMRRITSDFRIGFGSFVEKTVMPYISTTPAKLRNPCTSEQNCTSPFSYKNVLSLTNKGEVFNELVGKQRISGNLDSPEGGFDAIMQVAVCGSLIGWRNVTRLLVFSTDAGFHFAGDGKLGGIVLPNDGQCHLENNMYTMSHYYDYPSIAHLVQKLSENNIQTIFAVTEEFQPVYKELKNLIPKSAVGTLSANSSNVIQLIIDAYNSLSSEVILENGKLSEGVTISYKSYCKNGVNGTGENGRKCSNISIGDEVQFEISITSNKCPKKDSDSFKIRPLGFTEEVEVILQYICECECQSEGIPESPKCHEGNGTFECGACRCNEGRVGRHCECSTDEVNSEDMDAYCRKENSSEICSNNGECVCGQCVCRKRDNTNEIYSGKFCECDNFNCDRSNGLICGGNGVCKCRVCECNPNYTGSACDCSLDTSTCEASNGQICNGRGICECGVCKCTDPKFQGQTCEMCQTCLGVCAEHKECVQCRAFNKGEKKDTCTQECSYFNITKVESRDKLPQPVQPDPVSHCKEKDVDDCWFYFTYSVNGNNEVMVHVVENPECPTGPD
Description: α4β1-VCAM Competition ELISA
A Nunc MaxiSorp plate was coated with rh VCAM-1/CD106 Fc chimera (R&D #862-VC) at 400 ng/well in 50 ul per well in 1×PBS and incubated overnight at 4° C. The solution was removed by shaking and then blocked with 250 ul of 1% BSA in 1×PBS per well. The wells were then incubated at room temperature for 1 hr with shaking. Each well was then washed once with wash buffer (50 mM Tris-HCl pH7.6, 100 mM NaCL, 1 mM MnCl2 or MgCl2, 0.05% Tween-20). 25 ul of serial dilutions of peptides starting at 200 μM in assay buffer (Assay buffer: 50 mM Tris-HCl pH7.6, 100 mM NaCl, 1 mM MnCl2 or MgCl2, 0.05% Tween-20) was added to each well. Additionally, 25 μl of α4β1 (R&D Systems #5668-A4) was added to each well at a fixed concentration of 120 nM. The final peptide and α4β1 concentrations were 100 μM and 60 nM, respectively. The plates were then incubated at 37° C. for 2 hr. The solution was then removed by shaking and each well was washed three times with wash buffer. 50 ul of 9F10 antibody at 4 ug/ml (purified mouse anti-human CD49d, BD Bioscience Cat #555502) was then added to each well, and the plate was incubated at room temperature for Ihr with shaking. The solution was again removed by shaking, and each well was washed three times with wash buffer. 50 μl of peroxidase-conjugated AffiniPure Goat anti-mouse IgG (Jackson immune research cat #115-035-003) diluted in 1:5000 in assay buffer was added to each well. The plate was incubated at room temperature for 30 min with shaking. Each well was then washed 3 times with wash buffer. 100 ul of TMB was then added to each well and closely observe during developing time. The reaction was stepped with 2N H2SO4 and absorbance was read at 450 nm.

Jurkat E6.1 cells = Jurkat E6.1 cells (Homo sapiens, UniProt P05556+P13612); assay: α4β1-VCAM Cell Adhesion Assay; format: cell-based; conditions: thioether peptide dimers, Table 7; read-out: Cell Adhesion A4B1
Sequence of Jurkat E6.1 cells (P05556 21-798, one chain of several): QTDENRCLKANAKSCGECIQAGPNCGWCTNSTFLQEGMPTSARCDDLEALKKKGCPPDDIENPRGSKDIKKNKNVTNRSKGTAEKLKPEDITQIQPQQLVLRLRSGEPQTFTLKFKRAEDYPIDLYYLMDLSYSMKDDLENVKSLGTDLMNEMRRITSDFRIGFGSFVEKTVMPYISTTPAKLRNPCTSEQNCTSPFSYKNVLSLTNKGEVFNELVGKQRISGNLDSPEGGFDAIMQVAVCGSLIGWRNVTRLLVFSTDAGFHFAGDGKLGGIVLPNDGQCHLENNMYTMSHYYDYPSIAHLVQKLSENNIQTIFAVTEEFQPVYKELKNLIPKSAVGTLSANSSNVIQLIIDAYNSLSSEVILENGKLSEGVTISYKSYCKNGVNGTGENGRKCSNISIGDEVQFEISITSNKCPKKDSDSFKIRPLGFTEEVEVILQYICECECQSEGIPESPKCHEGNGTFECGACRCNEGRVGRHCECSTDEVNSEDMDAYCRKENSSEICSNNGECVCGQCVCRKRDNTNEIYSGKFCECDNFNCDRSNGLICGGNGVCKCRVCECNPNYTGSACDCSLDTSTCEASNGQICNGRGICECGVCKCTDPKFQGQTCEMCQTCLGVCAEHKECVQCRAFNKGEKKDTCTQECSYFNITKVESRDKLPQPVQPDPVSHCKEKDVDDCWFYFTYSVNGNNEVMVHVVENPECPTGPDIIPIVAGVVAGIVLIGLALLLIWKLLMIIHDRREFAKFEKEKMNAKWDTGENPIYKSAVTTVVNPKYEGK
Description: α4β1-VCAM Cell Adhesion Assay
Jurkat E6.1 cells (Sigma #88042803) were cultured in RPMI 1640 HEPES medium (Invitrogen #22400-089) supplemented with 10% serum (Fetal Bovine Serum, Invitrogen #16140-071), 1 mM sodium pyruvate (Invitrogen #11360-070), 2 mM L-glutamine (Invitrogen #25030-081) and Penicillin-Streptomycin (Invitrogen #15140-122) at 100 units of penicillin and 100 μg of streptomycin per ml. The cells were washed two times in DMEM medium (ATCC #30-2002) supplemented with 0.1% BSA, 10 mM HEPES pH 7 and 1 mM MnCl2. The cells were re-suspended in supplemented DMEM medium at a density of 4×10^6 cells/ml.
A Nunc MaxiSorp plate was coated with rh VCAM-1/CD106 Fc chimera (R&D #862-VC) at 400 ng per well in 50 μl per well in 1×PBS and incubated at 4° C. overnight. The solution was then removed by shaking, blocked with 250 μl per well PBS containing 1% BSA, and incubated at 37° C. for 1 hr. The solution was removed by shaking. Peptides were diluted by serial dilution in a final volume of 50 μl per well (2× concentration). To each well, 50 μl of cells (200,000 cells) were added and the plate was incubated at 37° C., 5% CO2 for 30-45 min to allow cell adhesion. The wells were washed manually three times (100 μl per wash) with supplemented DMEM. After the final wash, 100 μl/well of supplemented DMEM and 10 ul/well of MTT reagent (ATTC cat #30-1010K) were added. The plate was incubated at 37° C., 5% CO2 for 2-3 hrs until a purple precipitate is visible. 100 ul of Detergent Reagent (ATTC cat #30-1010K) is added to each well. The plate was covered from the light, wrapped in Parafilm to prevent evaporation, and left overnight at room temperature in the dark. The plate was shaken for 5 min and the absorbance at 570 nm is measured. To calculate the dose response, the absorbance value of control wells not containing cells was subtracted from each test well.

RPMI 8866 cells = target: T2, RPMI 8866 cells (Homo sapiens, UniProt P13612+P26010); assay: α4β7-MAdCAM Cell Adhesion Assay; format: cell-based; conditions: thioether peptide dimers, Table 7; read-out: Cell-Adhesion A4B7
T2 sequence (P13612 34-1032): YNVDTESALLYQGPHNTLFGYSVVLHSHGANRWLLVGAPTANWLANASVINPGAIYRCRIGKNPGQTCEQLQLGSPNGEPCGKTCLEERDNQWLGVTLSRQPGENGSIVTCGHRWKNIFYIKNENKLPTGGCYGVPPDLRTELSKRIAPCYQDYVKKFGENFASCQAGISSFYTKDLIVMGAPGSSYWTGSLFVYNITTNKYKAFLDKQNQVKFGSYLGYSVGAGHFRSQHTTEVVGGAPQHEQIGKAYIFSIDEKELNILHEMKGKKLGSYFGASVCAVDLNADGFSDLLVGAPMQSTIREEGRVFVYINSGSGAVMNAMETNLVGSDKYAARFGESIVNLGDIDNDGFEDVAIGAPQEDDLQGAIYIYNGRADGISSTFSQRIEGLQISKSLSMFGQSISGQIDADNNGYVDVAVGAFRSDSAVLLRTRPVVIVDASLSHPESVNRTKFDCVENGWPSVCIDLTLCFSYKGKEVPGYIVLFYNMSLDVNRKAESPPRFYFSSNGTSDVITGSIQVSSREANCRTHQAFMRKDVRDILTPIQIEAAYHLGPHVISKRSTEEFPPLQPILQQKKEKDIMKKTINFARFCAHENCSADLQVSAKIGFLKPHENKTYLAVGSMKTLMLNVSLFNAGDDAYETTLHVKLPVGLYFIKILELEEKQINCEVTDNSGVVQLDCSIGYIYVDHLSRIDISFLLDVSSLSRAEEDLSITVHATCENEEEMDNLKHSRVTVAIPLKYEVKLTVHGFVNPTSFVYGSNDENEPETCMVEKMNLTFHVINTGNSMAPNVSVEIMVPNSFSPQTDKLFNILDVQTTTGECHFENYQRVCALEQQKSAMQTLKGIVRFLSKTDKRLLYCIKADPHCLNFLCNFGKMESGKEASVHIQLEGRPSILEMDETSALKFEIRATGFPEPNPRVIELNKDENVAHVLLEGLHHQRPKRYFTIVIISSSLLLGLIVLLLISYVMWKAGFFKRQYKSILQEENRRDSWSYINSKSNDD
T2 sequence (P26010 20-798): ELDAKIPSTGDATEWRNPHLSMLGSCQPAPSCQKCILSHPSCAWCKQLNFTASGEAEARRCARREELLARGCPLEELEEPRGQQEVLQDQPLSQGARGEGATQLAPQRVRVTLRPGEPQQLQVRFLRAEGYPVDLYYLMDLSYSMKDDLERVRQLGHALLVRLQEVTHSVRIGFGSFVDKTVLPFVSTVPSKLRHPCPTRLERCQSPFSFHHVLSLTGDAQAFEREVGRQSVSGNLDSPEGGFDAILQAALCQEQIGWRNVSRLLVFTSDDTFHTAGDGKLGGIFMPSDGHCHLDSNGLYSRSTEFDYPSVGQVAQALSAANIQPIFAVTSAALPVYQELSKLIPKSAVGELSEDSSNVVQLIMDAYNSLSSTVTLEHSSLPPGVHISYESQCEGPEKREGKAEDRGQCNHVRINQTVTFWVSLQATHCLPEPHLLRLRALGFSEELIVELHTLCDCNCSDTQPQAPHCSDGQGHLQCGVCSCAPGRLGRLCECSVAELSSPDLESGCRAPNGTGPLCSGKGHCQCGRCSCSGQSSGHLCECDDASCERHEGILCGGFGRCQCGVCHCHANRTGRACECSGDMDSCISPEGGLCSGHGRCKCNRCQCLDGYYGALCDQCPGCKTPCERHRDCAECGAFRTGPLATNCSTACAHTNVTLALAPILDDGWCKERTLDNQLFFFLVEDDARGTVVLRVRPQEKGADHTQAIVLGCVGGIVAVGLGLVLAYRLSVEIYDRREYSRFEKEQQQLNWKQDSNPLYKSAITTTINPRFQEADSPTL
Outline: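 Peptide inhibition of adhesion measured with MAdCAM-1/Fc chimera immobilised at 200 ng/well and MnCl2-activated (1 mM) RPMI 8866 cells, 30-45 min at 37° C. Adherent cells remaining after three washes detected by MTT reduction at 570 nm, corrected for no-cell wells, giving dose response.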

## CC(C)C[C@@H]1NC(=O)[C@H]([C@@H](C)O)NC(=O)[C@H](CC(=O)O)NC(=O)[C@H](CO)NC(=O)[C@H](CCCNC(=N)N)N(C)C(=O)c2ccccc2CSC(C)(C)[C@@H](C(=O)N[C@@H](Cc2c[nH]c3ccccc23)C(=O)N[C@@H](CCC(=O)O)CC(=O)N[C@H](CCCCN)C(N)=O)NC1=O [compound 151] (HELM PEPTIDE1{[meR].S.D.T.L.[Pen].W.[O=C(O)CC[C@@H](CC(=O)[*:2])N[*:1]].[dK].[am]}|CHEM1{[O=C(c1ccccc1C[*:2])[*:1]]}$PEPTIDE1,CHEM1,1:R1-1:R1|PEPTIDE1,CHEM1,6:R3-1:R2$$$V2.0)
[1]
  half-life at 22 μM: > 3 h
α4β1
  IC50: 25 to 100 nM

## CC(C)C[C@@H]1NC(=O)[C@H]([C@@H](C)O)NC(=O)[C@H](CC(=O)O)NC(=O)[C@H](CO)NC(=O)[C@H](CCCNC(=N)N)N(C)C(=O)c2ccccc2CSC(C)(C)[C@@H](C(=O)N[C@@H](Cc2ccc3ccccc3c2)C(=O)N[C@@H](CCC(=O)O)CC(=O)N[C@H](CCCCN)C(N)=O)NC1=O [compound 161]
[1]
  half-life at 22 μM: > 3 h
Jurkat E6.1 cells
  IC50: > 100000 nM
α4β1
  IC50: 25 to 100 nM

## CC(C)C[C@@H]1NC(=O)[C@H]([C@@H](C)O)NC(=O)[C@H](CC(=O)O)NC(=O)[C@H](CO)NC(=O)[C@H](CCCNC(=N)N)N(C)C(=O)c2ccccc2CSC(C)(C)[C@@H](C(=O)N[C@@H](Cc2ccc(O)cc2)C(=O)N[C@@H](CCC(=O)O)C(=O)N[C@H](CCCCN)C(N)=O)NC1=O [compound 168] (HELM PEPTIDE1{[meR].S.D.T.L.[Pen].Y.E.[dK].[am]}|CHEM1{[O=C(c1ccccc1C[*:2])[*:1]]}$PEPTIDE1,CHEM1,1:R1-1:R1|PEPTIDE1,CHEM1,6:R3-1:R2$$$V2.0)
Jurkat E6.1 cells
  IC50: > 100000 nM
α4β1
  IC50: 25 to 100 nM

## CC(C)C[C@@H]1NC(=O)[C@H]([C@@H](C)O)NC(=O)[C@H](CC(=O)O)NC(=O)[C@H](CO)NC(=O)[C@H](CCCNC(=N)N)N(C)C(=O)c2ccccc2CSC(C)(C)[C@@H](C(=O)N[C@@H](Cc2c[nH]c3ccccc23)C(=O)N[C@H](CCC(=O)O)C(=O)N[C@@H](CO)C(=O)N[C@H](CCCCN)C(N)=O)NC1=O [compound 191] (HELM PEPTIDE1{[meR].S.D.T.L.[Pen].W.[dE].S.[dK].[am]}|CHEM1{[O=C(c1ccccc1C[*:2])[*:1]]}$PEPTIDE1,CHEM1,1:R1-1:R1|PEPTIDE1,CHEM1,6:R3-1:R2$$$V2.0)
Jurkat E6.1 cells
  IC50: > 100000 nM
RPMI 8866 cells
  IC50: < 25 nM

## CC(C)C[C@@H]1NC(=O)[C@H]([C@@H](C)O)NC(=O)[C@H](CC(=O)O)NC(=O)[C@H](CO)NC(=O)[C@H](CCCNC(=N)N)N(C)C(=O)c2ccccc2CSC(C)(C)[C@@H](C(=O)N[C@@H](Cc2c[nH]c3ccccc23)C(=O)N[C@H](CCC(=O)O)C(=O)N[C@@H](CCC(=O)O)C(=O)N[C@H](CCCCN)C(N)=O)NC1=O [compound 194] (HELM PEPTIDE1{[meR].S.D.T.L.[Pen].W.[dE].E.[dK].[am]}|CHEM1{[O=C(c1ccccc1C[*:2])[*:1]]}$PEPTIDE1,CHEM1,1:R1-1:R1|PEPTIDE1,CHEM1,6:R3-1:R2$$$V2.0)
RPMI 8866 cells
  IC50: < 25 nM
α4β1
  IC50: 100 to 1000 nM

— patent US20260217767A1, “NOVEL A4B7 THIOETHER PEPTIDE DIMER ANTAGONISTS” (Protagonist Therapeutics, Inc., priority 2014, published 2026)
